Laboratory results from US9981950B2, “Triazoles as NR2B receptor inhibitors” (Janssen Pharmaceuticals, Inc., priority 2014, dated 2018).

Columns and labels:
rat NR1/NR2B receptor [1] = biological target: T1, rat NR1/NR2B receptor (Rattus norvegicus (Rat), UniProt P35439+Q00960); assay: NR2B binding assay: inhibition of specific [3H]-Ifenprodil binding to the rat NR1/NR2B receptor; conditions: rat brain membranes, Hill-plot 2-parameter-model
Experimental: Inhibition of Specific Binding to the Rat NR1/NR2B Receptor
(§1) Male Wistar rats (180 to 200 g) were killed by suffocation in a CO2 chamber for two minutes. Whole brains without cerebellum were removed and dissected on ice, placed into closed vials and stored at −70° C.
Membrane fractions were prepared and tested using standard techniques. At the time of the assay, 1 g of the brains was placed into 25 ml of 50 mM Tris/10 mM EDTA buffer, pH 7.1, (25 vol. per g of original tissue) and homogenized for 30 sec at 20000 rpm with an Ultraturrax T25 (Jahnke & Kunkel, IKA-Labortechnik, Staufen, Germany). The homogenate was centrifuged at 4° C. for 10 min at 48000 g (OPTIMA L-70, Beckman, Palo Alto, Calif. 94304, USA).
The supernatant was discarded and the pellet was homogenized on ice for 30 sec at 20000 rpm with an Ultraturrax and again centrifuged at 48000 g for 30 minutes at 4° C. The resulted pellet was resuspended in 25 ml of 50 mM Tris/10 mM EDTA buffer, homogenized for 30 sec with an Ultraturrax, aliquoted, frozen at −70° C. and stored until use.
(§2) After thawing on the day of the assay, a 5 ml membrane aliquot was centrifuged at 48000 g for 30 min at 4° C. The pellet was resuspended in 5 ml of 5 mM Tris/1 mM EDTA buffer, pH 7.4, homogenized for 30 sec at 20000 rpm with an Ultraturrax and centrifuged at 48000 g for 30 min at 4° C. This was repeated twice. The final pellet was homogenized in 5 ml of 5 mM Tris/l mM EDTA buffer at 4° C. with an Ultraturrax and used for the Ifenprodil-binding assay as described in the following.
Nonspecific binding was estimated in the presence of […] CP101.606. The samples were incubated for 60 min. at 4° C.
The incubation was terminated by filtration of the membrane preparations using Filtermat B (Pharmacia, Uppsala Sweden) and a Micro Cell Harvester (Skatron, Lier, Norway). The Filtermat B had been presoaked with 1% polyethylene imine and carefully washed with 50 mM Tris/HCl-buffer pH 7.7 after the filtration to separate free and bound radioactivity.
The optimal amount of membrane preparation in the assay had been determined and optimized for each membrane preparation separately before the test.
For pipetting of the incubation mixture we routinely used the robot Biomek2000 (Fa. Beckman).
For determination of IC50 values the Hill-plot, 2-parameter-model was used.

hERG-receptor = hERG-receptor (Homo sapiens (Human), UniProt Q12809); assay: HERGBD: inhibition of specific 3H-Dofetilide binding to the hERG-receptor; conditions: HEK cell membranes with human ERG, Hill-plot 2-parameter-model
hERG-receptor, sequence (Q12809 whole entry): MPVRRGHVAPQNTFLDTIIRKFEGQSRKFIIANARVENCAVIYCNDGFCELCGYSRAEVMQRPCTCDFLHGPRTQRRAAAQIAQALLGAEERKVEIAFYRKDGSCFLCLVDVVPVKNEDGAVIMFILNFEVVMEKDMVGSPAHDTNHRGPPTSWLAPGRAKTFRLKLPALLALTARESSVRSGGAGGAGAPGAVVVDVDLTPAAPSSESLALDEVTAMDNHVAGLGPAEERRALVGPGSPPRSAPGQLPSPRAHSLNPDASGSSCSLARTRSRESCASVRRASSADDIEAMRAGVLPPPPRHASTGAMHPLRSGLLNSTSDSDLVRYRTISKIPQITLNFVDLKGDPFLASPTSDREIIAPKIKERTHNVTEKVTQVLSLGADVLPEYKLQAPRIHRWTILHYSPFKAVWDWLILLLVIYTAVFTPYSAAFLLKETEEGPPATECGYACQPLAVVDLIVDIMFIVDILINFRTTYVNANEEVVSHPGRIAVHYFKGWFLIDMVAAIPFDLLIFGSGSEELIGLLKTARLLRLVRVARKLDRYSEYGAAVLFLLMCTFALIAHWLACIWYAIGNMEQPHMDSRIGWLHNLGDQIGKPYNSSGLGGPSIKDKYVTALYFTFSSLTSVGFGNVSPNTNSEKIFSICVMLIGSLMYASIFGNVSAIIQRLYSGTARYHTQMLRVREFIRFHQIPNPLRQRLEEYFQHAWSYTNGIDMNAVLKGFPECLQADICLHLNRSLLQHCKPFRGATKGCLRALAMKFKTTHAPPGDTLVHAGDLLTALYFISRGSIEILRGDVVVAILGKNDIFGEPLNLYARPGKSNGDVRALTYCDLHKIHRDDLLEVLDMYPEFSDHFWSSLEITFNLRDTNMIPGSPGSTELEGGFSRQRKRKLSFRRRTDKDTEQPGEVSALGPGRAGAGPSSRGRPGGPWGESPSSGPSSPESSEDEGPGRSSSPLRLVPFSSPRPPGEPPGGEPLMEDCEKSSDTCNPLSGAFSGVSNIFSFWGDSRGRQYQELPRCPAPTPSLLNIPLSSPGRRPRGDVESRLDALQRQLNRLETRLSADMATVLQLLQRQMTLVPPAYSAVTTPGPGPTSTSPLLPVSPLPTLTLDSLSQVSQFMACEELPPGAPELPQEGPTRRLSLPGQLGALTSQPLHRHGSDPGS
Experimental: Inhibition of Specific Binding to the hERG-Receptor (HERGBD)
A HEK cell line with stable transfected human ERG receptor was used for the assay. The cells were grown adherently and maintained in DULBECCOS' MEM medium with 10% FBS, 1% non-essential amino acids, 1% Penicillin/Streptomycin and 400 μg/ml G418 (Calbiochem).
For binding assays and membrane preparations the cell culture medium was removed, cells were washed with PBS. Crude membranes for radioligand binding experiments were prepared by scraping the cells off the dishes in ice cold 20 mM HEPES/0.1 mM KCl/pH 7.2. The cell suspension was homogenized on ice (Ultra turrax, 3×20 sec.) and the homogenate was spun for 10 min (1° C., 1000 g, OPTIMA, SW28, 2800 U/min). The supernatant was than centrifuged for 40 min at 100000 g (1° C., OPTIMA, SW28, 23000 U/min). The membrane pellet was resuspended in 20 mM HEPES/0.1 mM KCl/pH 7.2, frozen and stored at −80° C.
After thawing on the day of the assay, the membrane suspension was diluted further with 20 mM HEPES/0.1 mM KCl/pH 7.2.
The incubation mixture of 200 μl contained 1.5 nmol/l 3H-Dofetilide, optimized amount of membrane preparation, 20 mM HEPES/0.1 mM KCl/(pH 7.2) and inhibitor in 1% DMSO. Nonspecific binding was estimated in the presence of […] Dofetilide. The samples were incubated for 90 min. at RT.
Binding was terminated by filtration of the incubated membrane preparations using Filtermat B (Pharmacia, Uppsala Sweden) and a Micro Cell Harvester (Skatron, Lier, Norway). The Filtermat B had been presoaked with 1% polyethylenimine and carefully washed with 0.05 M Tris/HCl-buffer pH=7.7 after the filtration to separate free and bound radioactivity. The filters were counted in a scintillation counter (Betaplate 1205, Berthold, Wildbad, Germany) in order to determine the specific binding of [^3H]-Dofetilide.
The optimal amount of membrane preparation in the assay was determined and optimized for each membrane preparation separately in front of using the membranes in compound testing.
For pipetting of the incubation mixture we routinely use the robot Biomek2000 (Fa. Beckman).

rat NR1/NR2B receptor [2] = biological target: T1, rat NR1/NR2B receptor; assay: RRNR2BB: inhibition of specific binding to the rat NR1/NR2B receptor; conditions: [3H]-Ifenprodil binding, rat brain membranes, Hill-plot 2-parameter-model
Experimental: RRNR2BB—Inhibition of Specific Binding to the Rat NR1/NR2B Receptor
as §1
Membrane fractions were prepared and tested using standard techniques. At the time of the assay, 1 g of the brains were placed into 25 ml of 50 mM Tris/10 mM EDTA buffer, pH=7.1, (25 vol. per g of original tissue) and was homogenized for 30 sec at 20000 U/min with an Ultraturrax T25 (Jahnke & Kunkel, IKA-Labortechnik, Staufen, Germany). The homogenate was centrifuged at 4° C. for 10 min at 48000 g (OPTIMA L-70, Beckman, Palo Alto, Calif. 94304, USA). The supernatant was discarded and the pellet was homogenized on ice for 30 sec at 20000 U/min with an Ultraturrax and again centrifuged at 48000 g for 30 minutes at 4° C. The resultant pellet was resuspended in 25 ml of 50 mM Tris/10 mM EDTA buffer, homogenized for 30 sec with an Ultraturrax, aliquoted, frozen at −70° C. and stored until use
as §2, with “aliquote” for “aliquot”, “pH=7.4,” for “pH 7.4,”, “U/min” for “rpm”, “This step” for “This”, “Tris/mM” for “Tris/l mM”, “assay.” for “assay as described in the following.”
Nonspecific binding was estimated in the presence of 10 M CP101.606. The samples were incubated for 60 min. at 4° C.
Binding was terminated by filtration of the incubated membrane preparations using Filtermat B (Pharmacia, Uppsala Sweden) and a Micro Cell Harvester (Skatron, Lier, Norway). The Filtermat B had been presoaked with 1% polyethylenimine and carefully washed with […] Tris/HCl-buffer pH=7.7 after the filtration to separate free and bound radioactivity.
For pipetting of the incubation mixture the robot Biomek2000 (Fa. Beckman) was used.
The IC50 values in the tables below were determined using the Hill-plot, 2-parameter-model.

T1 sequence (Q00960 27-1482, other chains not shown): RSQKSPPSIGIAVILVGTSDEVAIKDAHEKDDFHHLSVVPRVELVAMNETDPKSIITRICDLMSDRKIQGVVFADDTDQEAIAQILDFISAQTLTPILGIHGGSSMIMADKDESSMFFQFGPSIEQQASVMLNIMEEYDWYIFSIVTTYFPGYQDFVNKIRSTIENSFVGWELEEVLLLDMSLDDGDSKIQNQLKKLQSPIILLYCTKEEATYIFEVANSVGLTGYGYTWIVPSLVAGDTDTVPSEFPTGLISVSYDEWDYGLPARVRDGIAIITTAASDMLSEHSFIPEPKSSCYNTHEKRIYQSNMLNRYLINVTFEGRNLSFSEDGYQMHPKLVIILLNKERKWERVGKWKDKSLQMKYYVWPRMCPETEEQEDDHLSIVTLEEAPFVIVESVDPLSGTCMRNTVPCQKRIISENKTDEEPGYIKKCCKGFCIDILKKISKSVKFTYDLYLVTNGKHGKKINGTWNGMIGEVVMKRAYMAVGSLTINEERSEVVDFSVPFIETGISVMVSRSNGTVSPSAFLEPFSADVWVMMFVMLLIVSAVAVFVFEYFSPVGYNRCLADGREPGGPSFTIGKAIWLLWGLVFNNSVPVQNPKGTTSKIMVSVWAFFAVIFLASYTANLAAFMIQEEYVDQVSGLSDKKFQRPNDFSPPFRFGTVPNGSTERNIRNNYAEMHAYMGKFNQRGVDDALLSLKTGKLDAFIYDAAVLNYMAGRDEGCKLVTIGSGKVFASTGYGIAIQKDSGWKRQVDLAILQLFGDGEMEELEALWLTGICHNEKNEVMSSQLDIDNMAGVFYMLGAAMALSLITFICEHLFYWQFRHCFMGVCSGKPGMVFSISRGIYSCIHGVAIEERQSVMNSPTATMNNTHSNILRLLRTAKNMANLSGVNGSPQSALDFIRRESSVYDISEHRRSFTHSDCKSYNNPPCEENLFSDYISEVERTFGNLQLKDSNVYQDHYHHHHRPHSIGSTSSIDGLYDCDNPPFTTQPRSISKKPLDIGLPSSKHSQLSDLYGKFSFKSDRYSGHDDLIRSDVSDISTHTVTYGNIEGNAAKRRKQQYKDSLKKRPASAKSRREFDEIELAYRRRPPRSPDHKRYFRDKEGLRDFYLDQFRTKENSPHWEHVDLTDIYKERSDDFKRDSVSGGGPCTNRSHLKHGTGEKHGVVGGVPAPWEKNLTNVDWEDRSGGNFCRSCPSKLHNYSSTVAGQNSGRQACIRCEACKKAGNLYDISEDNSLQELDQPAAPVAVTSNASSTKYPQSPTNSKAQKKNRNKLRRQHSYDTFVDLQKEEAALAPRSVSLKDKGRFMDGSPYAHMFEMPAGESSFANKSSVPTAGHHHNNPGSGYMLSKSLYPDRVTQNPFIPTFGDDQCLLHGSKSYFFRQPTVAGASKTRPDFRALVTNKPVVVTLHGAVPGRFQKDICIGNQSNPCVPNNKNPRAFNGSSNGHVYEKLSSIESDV

Structure (SMILES) | IC50 (rat NR1/NR2B receptor [1]) [nM] | IC50 (hERG-receptor) [nM] | IC50 (rat NR1/NR2B receptor [2]) [nM]
Cc1ncnn1Cc1cn(-c2ccc(Cl)cc2)nn1 [Example 8, 1-(4-Chloro-phenyl)-4-(5-methyl-[1,2,4]triazol-1-ylmethyl)-1H-[1,2,3]triazole] | 14300 | 48900 | 14300
Clc1ccc(-n2cc(Cn3ncnc3C3CCCC3)nn2)cc1 [Example 14, 1-(4-Chloro-phenyl)-4-(5-cyclopentyl-[1,2,4]triazol-1-ylmethyl)-1H-[1,2,3]triazole] | 12500 | 30500 | 12500
CCCc1nccn1Cc1cn(-c2ccc(Cl)cc2)nn1 [Example 18, 1-(4-Chloro-phenyl)-4-(2-propyl-imidazol-1-ylmethyl)-1H-[1,2,3]triazole] | 46.6 | 2230 | 46.6
Cc1nc(C2CCC2)n(Cc2cn(-c3ccc(Cl)cc3)nn2)n1 [Example 21, 1-(4-Chloro-phenyl)-4-(5-cyclobutyl-3-methyl-[1,2,4]triazol-1-ylmethyl)-1H-[1,2,3]triazole] |  | 3520 | > 10000
Cc1nccn1Cc1cn(-c2ccc(Cl)cc2)nn1 [Example 24, 1-(4-Chloro-phenyl)-4-(2-methyl-imidazol-1-ylmethyl)-1H-[1,2,3]triazole] | 38.4 | 5640 | 38.4
CCCCc1nccn1Cc1cn(-c2ccc(Cl)cc2)nn1 [Example 27, 4-(2-Butyl-imidazol-1-ylmethyl)-1-(4-chloro-phenyl)-1H-[1,2,3]triazole] | 38.9 | 570 | 38.9
OCc1nccn1Cc1cn(-c2ccc(Cl)cc2)nn1 [Example 28, 4-(2-Hydroxymethyl-imidazol-1-ylmethyl)-1-(4-chloro-phenyl)-1H-[1,2,3]triazole] | 573 | 11200 | 573
Cc1nncn1Cc1cn(-c2ccc(Cl)cc2)nn1 [Example 31, 1-(4-Chloro-phenyl)-4-(3-methyl-[1,2,4]triazol-4-ylmethyl)-1H-[1,2,3]triazole] |  | 22400 | > 10000
Cc1nccn1Cc1cn(-c2ccc(Cl)c(Cl)c2)nn1 [Example 32, 1-(3,4-Dichloro-phenyl)-4-(2-methyl-imidazol-1-ylmethyl)-1H-[1,2,3]triazole] | 4.92 | 3930 | 4.92
CCc1nccn1Cc1cn(-c2ccc(Cl)c(Cl)c2)nn1 [Example 33, 1-(3,4-Dichloro-phenyl)-4-(2-ethyl-imidazol-1-ylmethyl)-1H-[1,2,3]triazole] | 4.65 | 2230 | 4.65
CCCc1nccn1Cc1cn(-c2ccc(Cl)c(Cl)c2)nn1 [Example 34, 1-(3,4-Dichloro-phenyl)-4-(2-propyl-imidazol-1-ylmethyl)-1H-[1,2,3]triazole] | 7.67 | 1120 | 7.67
CC(C)c1nccn1Cc1cn(-c2ccc(Cl)c(Cl)c2)nn1 [Example 35, 1-(3,4-Dichloro-phenyl)-4-(2-isopropyl-imidazol-1-ylmethyl)-1H-[1,2,3]triazole] | 7.4 | 5880 | 7.4
Clc1ccc(-n2cc(Cn3ccnc3C3CC3)nn2)cc1Cl [Example 36, 4-(2-Cyclopropyl-imidazol-1-ylmethyl)-1-(3,4-dichloro-phenyl)-1H-[1,2,3]triazole] | 17.9 | 1160 | 17.9
CCCCc1nccn1Cc1cn(-c2ccc(Cl)c(Cl)c2)nn1 [Example 37, 4-(2-Butyl-imidazol-1-ylmethyl)-1-(3,4-dichloro-phenyl)-1H-[1,2,3]triazole] | 6.84 | 585 | 6.84
CC(C)(C)c1nccn1Cc1cn(-c2ccc(Cl)c(Cl)c2)nn1 [Example 38, 4-(2-tert-Butyl-imidazol-1-ylmethyl)-1-(3,4-dichloro-phenyl)-1H-[1,2,3]triazole] | 526 | 5680 | 526
Clc1ccc(-n2cc(Cn3ccnc3C3CCC3)nn2)cc1Cl [Example 39, 4-(2-Cyclobutyl-imidazol-1-ylmethyl)-1-(3,4-dichloro-phenyl)-1H-[1,2,3]triazole] | 7.58 | 1740 | 7.58
OCCc1nccn1Cc1cn(-c2ccc(Cl)c(Cl)c2)nn1 [Example 40, 4-[2-(2-Hydroxyethyl)-imidazol-1-ylmethyl]-1-(3,4-dichloro-phenyl)-1H-[1,2,3]triazole] | 17.2 | 14700 | 17.2
FCCc1nccn1Cc1cn(-c2ccc(Cl)c(Cl)c2)nn1 [Example 41, 1-(3,4-Dichloro-phenyl)-4-[2-(2-fluoro-ethyl)-imidazol-1-ylmethyl]-1H-[1,2,3]triazole] | 26.2 | 13700 | 26.2
Fc1ccc(-n2cc(Cn3ccnc3C3CC3)nn2)cc1Cl [Example 44] | 28.3 | 3570 | 28.3
Cc1nc(C)n(Cc2cn(-c3ccccc3)nn2)n1 [Example 46, 4-(3,5-Dimethyl-[1,2,4]triazol-1-ylmethyl)-1-phenyl-1H-[1,2,3]triazole] |  | 7580 | > 10000
CC(F)(F)c1cc(-n2cc(Cn3ccnc3CCO)nn2)ccc1F [Example 106, 1-[3-(1,1-Difluoro-ethyl)-4-fluoro-phenyl]-4-[2-(2-hydroxy-ethyl)-imidazol-1-ylmethyl]-1H-[1,2,3]triazole] | 8.08 |  | 8.08
